Assay results as given in patent US20170157145A1, “SUBSTANCE INDUCING EXPRESSION OF PARKIN POLYPEPTIDE AND USE THEREOF” (Samsung Electronics Co., Ltd., priority 2015, published 2017).

Columns and labels:
human Parkin promoter = test: Parkin promoter luciferase screening in HEK-Parkin-Luc cell line; type: cell-based; conditions: relative to DMSO, 10 μM, about 24 hours
Experimental: To identify compounds capable of inducing expression of Parkin protein at the promoter level, a pGL3-Parkin-Luc DNA construct was used (Cell Death and Differentiation, vol. 18, No. 5, p. 769-782, 2011.05 ). This construct was used to quantify the activity of human Parkin promoter by luminescence intensity due to a luciferase expression level. As a cell line, a human embryonic kidney cell line HEK-293T (ATCC), which maintains Parkin protein activity at a low level, was prepared.
Thereafter, 5 μg/ml of puromycin (Calbiochem) was added to the HEK-293T cells, and cultured at 37° C. and 5 % CO2 for about 21 days. Every 3 days, the medium was replaced by a fresh medium containing 5 μg/ml of puromycin. Stable cell lines were established from single colonies of the cultured cell line. A cell line showing stable luciferase activity was obtained, and designated as HEK-Parkin-Luc, which was used to screen for compounds capable of activating the Parkin promoter. […]
Then, the cultured cells were washed with PBS, and a luminescent substrate (Promega) was added. Luminescence intensity of the cells was measured using a microplate luminometer (Berthold Technologies), and luciferase activity relative to a negative control of 0.1% DMSO was calculated.

Parkin protein = test: Immunoblotting of Parkin protein in HEK 293T cells; type: cell-based, human; conditions: Parkin protein relative to DMSO, 10 μM, about 48 hours
Experimental: Among the 44 compounds selected in the initial screen described in 2, 22 compounds were examined to determine whether they increased expression of Parkin protein when they are applied to an HEK 293T cell line.
10 μM of each compound was added to the HEK 293T cells, and cultured at 37° C. and 5% CO2 for about 48 hours. The cultured cells were collected, and proteins were obtained from the cells. Anti-Parkin protein antibody (Cell signaling) and anti-beta actin antibody (Sigma-Aldrich) were used to perform immunoblotting, and an image of the immunoblotting is shown in FIG. 1.

HEK 293T cell line = test: Cell protecting effect against H2O2 oxidative stress cytotoxicity (Alamar blue assay); type: cell-based, human; conditions: cytotoxicity inhibition ratio relative to DMSO; 10 μM 48 hours, then H2O2 500 μM 90 minutes
Experimental: A cytotoxicity-induced model by application of oxidative stress to the HEK 293T cell line was used. 10 μM of each of the 22 compounds was applied to the HEK cell line and cultured at 37° C. and 5% CO2 for about 48 hours. H2O2 (Sigma-Aldrich, final concentration of 500 μM) was applied to the cultured cells and cultured at 37° C. and 5% CO2 for about 90 minutes. Thereafter, cells were collected and cytotoxicity was examined by Alamar blue® assay (Thermo Fisher Scientific).
The level of H2O2-induced cytotoxicity in cells treated with each of the 22 compounds was compared with cells treated with DMSO alone. 16 compounds having a significant cytotoxicity inhibitory effect (P<0.05) against oxidative stress were selected.
In Table 1, the values of luciferase activity and immunoblotting were expressed relative to DMSO, and the cell protecting effect (%) represents a cytotoxicity inhibition ratio, relative to DMSO. […] Further, “n” represents the number of experiments that were repeated, and “s.e.” represents standard error.

parkin = test: Parkin expression in mouse brain subregions after i.p. hydrocortisone (immunoblot); type: in vivo; conditions: striatum, ventral midbrain and cerebellum; i.p. 7 days; vs vehicle treated control mice; normalized to β-actin
Experimental: The head skin was closed by suturing and wound healing and recovery were monitored following surgery. […] The brain was removed and processed for immunohistochemistry. […] After homogenization, samples were rotated at 4° C. for 30 min for complete lysis, then the homogenate was centrifuged at 52,000 rpm for 20 min, and the resulting fractions were collected. Protein levels were quantified using the BCA kit (Pierce) with BSA standards and analyzed by immunoblot. […] The densitometric analyses of the bands were performed using ImageJ (NIH, http://rsb.info.nih.gov/ij/).

AIMP2 = AIMP2 level in mouse striatum and ventral midbrain after i.p. hydrocortisone (western blot); type: in vivo; conditions: hydrocortisone 7 days vs DMSO
Experimental: The head skin was closed by suturing and wound healing and recovery were monitored following surgery. […] The brain was removed and processed for immunohistochemistry. […] After homogenization, samples were rotated at 4° C. for 30 min for complete lysis, then the homogenate was centrifuged at 52,000 rpm for 20 min, and the resulting fractions were collected. Protein levels were quantified using the BCA kit (Pierce) with BSA standards and analyzed by immunoblot.
The densitometric analyses of the bands were performed using ImageJ (NIH, http://rsb.info.nih.gov/ij/).

[1] = test system: tyrosine hydroxylase (TH)-positive dopaminergic neurons in the substantia nigra pars compacta; test: 6-OHDA-induced PD mouse model, stereological count of TH-positive dopaminergic neurons; type: in vivo; conditions: hydrocortisone pretreatment 0.4 mg/kg i.p. daily; 6-OHDA 8 ug intrastriatal on day 7
Experimental: Hydrocortisone was given to mice intraperitoneally. Hydrocortisone administration began on day 1 and continued for 11 days followed by stereological assessment of dopamine neuron counts. 6-OHDA intrastriatal injection was done on day 7. For stereotaxic injection of 6-hydroxy dopamine (6-OHDA, 8 ug), eight-week-old C57/BL6 mice treated either with hydrocortisone for 7 days or DMSO as a control were anesthetized with pentobarbital (60 mg/kg). An injection cannula (26.5 gauge) was applied stereotaxically into the striatum (anteroposterior, 0.5 mm from bregma; mediolateral, 2.0 mm; dorsoventral, 3.0 mm) unilaterally (applied into the right hemisphere). […] The head skin was closed by suturing and wound healing and recovery were monitored following surgery. […] Protein levels were quantified using the BCA kit (Pierce) with BSA standards and analyzed by immunoblot. […]
After scheduled treatments of hydrocortisone (0.4 mg/kg body weight, i.p. administration daily) in 6-OHDA intoxication models and control groups, animals were anesthetized with pentobarbital (50 mg/kg, intraperitoneal injection) and perfused with PBS followed by 4% paraformaldehyde (wt/vol in PBS). […] Total numbers of TH-positive neurons in substantia nigra pars compacta were counted using the Optical Fractionator probe of Stereo Investigator software (MicroBrightfield, Williston, Vt.). […]

## O=C(c1ccccc1)c1ccc2n1CCC2C(=O)O (racemic) [Ketorolac tromethamine, (±)-5-benzoyl-2,3-dihydro-1H-pyrrolizine-1-carboxylic acid]
Human Parkin promoter
  Luciferase activity: 1.31
Parkin protein
  Immunoblotting: 1.95
HEK 293T cell line
  Cell protecting effect (%): 21.49%

## C[C@]12CCC(=O)C=C1CC[C@@H]1[C@@H]2[C@@H](O)C[C@@]2(C)[C@H]1CC[C@]2(O)C(=O)CO [Hydrocortisone, (11β)-11,17,21-trihydroxypregn-4-ene-3,20-dione]
parkin
  increase of parkin expression: approximately two fold
AIMP2
  downregulation of parkin's toxic substrate AIMP2: 20%
Human Parkin promoter
  Luciferase activity: 1.52
Parkin protein
  Immunoblotting: 1.11
HEK 293T cell line
  Cell protecting effect (%): 35.53%
[1]
  dopaminergic neuronal survival against 6-OHDA intoxication: markedly enhanced dopaminergic neuronal survival
